Source: patent US20260137828A1, “COMPOSITIONS AND METHODS INVOLVING PROBIOTIC MOLECULES” (MICROSINTESIS INC., priority 2017, published 2026)

Key:
[1] = tested on: Staphylococcus aureus (strain alias 81M SPA t008); assay: Cefoxitin MIC testing with and without cell-free supernatant or size exclusion fractions; assay type: cell-based
Source text: (§1) Three methicillin resistant Staphylococci (MRS) strains were used in these experiments: 1) Staphylococcus pseudintermedius (strain alias C260 22-2011 dtqa), a clinical isolate from a dog skin infection; 2) Staphylococcus aureus (strain alias LA-414M SPA t034), a livestock-associated strain isolated from beef purchased from a grocery store in Charlottetown, PEI, Canada; and 3) Staphylococcus aureus (strain alias 81M SPA t008), isolated from poultry meat purchased from a grocery store in Charlottetown, PEI, Canada. All three MRS strains were provided by the Atlantic Veterinary College (AVC) at the University of Prince Edward Island. The methicillin-resistance of these strains was confirmed by AVC staff using an oxacillin disk diffusion method. The strains were originally cultured on sheep blood agar slants, and then transferred to lysogeny broth agar plates. Cefoxitin resuspended in methanol was used for antibiotic resistance testing, and growth was tested in two different media types, standard Lysogeny Broth and standard BBL™ Cation-Adjusted Mueller-Hinton Medium (Becton, Dickinson and Company). The minimum inhibitory concentrations (MICs) of the cefoxitin was determined for each strain in each respective medium in the presence and absence of the cell-free supernatant. Assays were performed according to the Clinical and Laboratory Standards Institute (CLSI) guidelines for MIC testing of Staphylococcal species [CLSI, 2015] as well as the European Committee for Antimicrobial Susceptibility Testing (EUCAST) of the European Society of Clinical Microbiology and Infectious Diseases [EUCAST, 2003].
(§2) The protocol for MIC testing was as follows. The cell-free supernatants were resuspended in the respective media and filter sterilized through a […] pore size filter. The required concentration of dried cell free supernatant was weighed and added at concentrations ranging from 0-60 mg/mL. Cefoxitin was added to obtain final concentrations ranging from 0-250 μg/mL. Cultures of each respective strain were grown overnight in either lysogeny broth or Mueller Hinton for 16-20 hours at 37° C. and 200 rpm shaking in aerobic conditions to achieve optical densities at 600 nm (OD600) of 1.2-1.6. […] The cultures (150 μL) were grown in a 96-well clear flat-bottom microtiter plate. The microtiter plate was then covered in parafilm and incubated at 35° C.±2° C. for 24 hours. Following incubation, microplates were read at 600 nm using a microplate reader. […] The data is the average from two technical replicates from two biological replicates.
For the size exclusion chromatography the sample was separated using a Sephadex G75 resin. The samples were separated and collected into fractions: Fraction 1 (>163000 Da), Fraction 2 (163000-14500 Da), Fraction 3 (14500-1300 Da), Fraction 4 (1300-110 Da), Fraction 5 (110-10 Da).

[2] = tested on: Staphylococcus pseudintermedius (strain alias C260 22-2011 dtqa); assay: Cefoxitin MIC testing with and without cell-free supernatant; assay type: cell-based; conditions: MSRP C260, Lysogeny Broth
Source text: as §1, §2

[3] = tested on: Staphylococcus aureus (strain alias LA-414M SPA t034); assay: as above; assay type: cell-based; conditions: MRSA LA 414M
Source text: as §1, §2

HylA = conditions: reference GapA, individual synthetic biopeptides, 50 μg per assay
HilA = assay: qPCR of HilA down-regulation in Salmonella; assay type: cell-based, Salmonella enterica typhimurium DT104; conditions: reference 16S, individual synthetic biopeptides, 50 μg per assay
Source text: The cell-free supernatant was separated using Sephadex G75 resin. The samples were separated and collected into fractions: Fraction 1 (>163000 Da), Fraction 2 (163000-14500 Da), Fraction 3 (14500-1300 Da), Fraction 4 (1300-110 Da), Fraction 5 (110-10 Da). The samples were collected and assayed by qPCR using Salmonella enterica typhimurium DT104 strain. The down-regulation of HilA was compared to the reference gene 16S.
The active fraction from G75 size exclusion chromatography was further separated using reverse phase chromatography. The fractions from the reverse phase: Fraction 1 (0-2 min), Fraction 2 (2-4 min), Fraction 3 (4-16 min), Fraction 4 (16-32 min), Fraction 5 (32-40 min), Fraction 6 (40-58 min). The fractions were dried and neutralized to remove acetonitrile and trifluoroacetic acid from the solvent. The dried fractions were assayed using the same qPCR assay conditions as above. The fractions were analyzed by de novo sequencing at the University of Guelph Advance Analytical center. The peptides from the active fractions of 6 batches were compared and common peptides from batches were deduced.
Additionally, the 1×sample from each probiotic culture was tested using the Salmonella qPCR assay described in example 1 or a Lactate Dehydrogenase (LDH) assay using either UPEC 099 or Staphylococcus aureus 81M. For the LDH assay the dried cell-free supernatant was resuspended into 5 mL of lysogeny broth and inoculated with either UPEC 099 or Staphylococcus aureus 81M and incubated for 4 hours. After incubation, the samples were centrifuged and the supernatant was assayed. A 100 μL aliquot of supernatant was added to 1 mL mammalian HT29 cells at 1×10^6 cells per mL in a 12-well plate. The samples were incubated for 45 minutes at 37° C. and 5% CO2. The supernatant was then assayed using the manufacture's protocol (Pierce LDH Cytotoxicity assay kit, Thermo Scientific, Rockford, Il, USA). The percent inhibition was calculated using the no treatment control and a detergent lysed control using the formula provided in the protocol (Table 3).

MRSA = conditions: after a 24 hour incubation; cited from earlier work

For `CO[C@@]1(NC(=O)Cc2cccs2)C(=O)N2C(C(=O)O)=C(COC(N)=O)CS[C@@H]21` [cefoxitin], the “Range of Cefoxitin concentration to inhibition growth to O.D. <0.1” value (“Range … to inhibition growth to O.D. <0.1” for short) ([1]; MRSA 81M, Lysogeny Broth, 0 mg/mL dried cell-free supernatant) was 75 to 125 µg/mL, the “Range … to inhibition growth to O.D. <0.1” value ([1]; MRSA 81M, Lysogeny Broth, 5 mg/mL dried cell-free supernatant) was 40 to 50 µg/mL and the “Range … to inhibition growth to O.D. <0.1” value ([1]; MRSA 81M, Lysogeny Broth, 30 mg/mL dried cell-free supernatant) was 30 to 40 µg/mL. The “Range … to inhibition growth to O.D. <0.1” value ([1]; MRSA 81M, Lysogeny Broth, 60 mg/mL dried cell-free supernatant) was 30 to 40 µg/mL, the “Range … to inhibition growth to O.D. <0.1” value ([1]; MRSA 81M, Mueller-Hinton Broth, 0 mg/mL dried cell-free supernatant) was 75 to 100 µg/mL and the “Range … to inhibition growth to O.D. <0.1” value ([1]; MRSA 81M, Mueller-Hinton Broth, 5 mg/mL dried cell-free supernatant) was 40 to 50 µg/mL. For the same molecule, the “Range … to inhibition growth to O.D. <0.1” value ([1]; MRSA 81M, Mueller-Hinton Broth, 30 mg/mL dried cell-free supernatant) was 30 to 40 µg/mL, the “Range … to inhibition growth to O.D. <0.1” value ([1]; MRSA 81M, Mueller-Hinton Broth, 60 mg/mL dried cell-free supernatant) was 20 to 30 µg/mL and the “Range … to inhibition growth to O.D. <0.1” value ([1]; Staphylococcus aureus 81M, control, cefoxitin only (0 mg/mL), Table 5) was 60 to 75 µg/mL. For the same molecule, the “Range … to inhibition growth to O.D. <0.1” value ([2]; 0 mg/mL dried cell-free supernatant) was 125 to 175 µg/mL, the “Range … to inhibition growth to O.D. <0.1” value ([2]; 5 mg/mL dried cell-free supernatant) was 50 to 75 µg/mL and the “Range … to inhibition growth to O.D. <0.1” value ([2]; 30 mg/mL dried cell-free supernatant) was 20 to 30 µg/mL. For the same molecule, the “Range … to inhibition growth to O.D. <0.1” value ([2]; 60 mg/mL dried cell-free supernatant) was 20 to 30 µg/mL, the “Range … to inhibition growth to O.D. <0.1” value ([3]; Lysogeny Broth, 0 mg/mL dried cell-free supernatant) was 30 to 40 µg/mL and the “Range … to inhibition growth to O.D. <0.1” value ([3]; Lysogeny Broth, 5 mg/mL dried cell-free supernatant) was 15 to 20 µg/mL. The “Range … to inhibition growth to O.D. <0.1” value ([3]; Lysogeny Broth, 30 mg/mL dried cell-free supernatant) was 15 to 20 µg/mL, the “Range … to inhibition growth to O.D. <0.1” value ([3]; Lysogeny Broth, 60 mg/mL dried cell-free supernatant) was 10 to 15 µg/mL and the “Range … to inhibition growth to O.D. <0.1” value ([3]; Mueller-Hinton Broth, 0 mg/mL dried cell-free supernatant) was 50 to 60 µg/mL. For the same molecule, the “Range … to inhibition growth to O.D. <0.1” value ([3]; Mueller-Hinton Broth, 5 mg/mL dried cell-free supernatant) was 40 to 50 µg/mL, the “Range … to inhibition growth to O.D. <0.1” value ([3]; Mueller-Hinton Broth, 30 mg/mL dried cell-free supernatant) was 20 to 30 µg/mL and the “Range … to inhibition growth to O.D. <0.1” value ([3]; Mueller-Hinton Broth, 60 mg/mL dried cell-free supernatant) was 20 to 30 µg/mL.

Molecule CVLPPK has a Fold down-regulation (HylA) of 3.20 Fold and a Fold down-regulation (HilA) of 3.75 Fold.

Work on HLLPLP yielded a Fold down-regulation (HylA) of 2.64 Fold and a Fold down-regulation (HilA) of 2.93 Fold.

LKPTPEGD showed a Fold down-regulation (HylA) of 4.69 Fold and a Fold down-regulation (HilA) of 11.08 Fold.

In the case of Lactobacillus acidophilus, the MRSA cells eliminated (MRSA) is listed as 99%.

With MALPPK the Fold down-regulation (HylA) was 9.06 Fold and the Fold down-regulation (HilA) was 19.56 Fold.

In the case of “YPPGGP [peptide identified in WO 2009/155711]”, the Fold down-regulation (HylA) is reported as 3.56 Fold and the Fold down-regulation (HilA) is reported as 2.93 Fold.

For “YPVEPF [peptide identified in WO 2009/155711]”, the Fold down-regulation (HylA) was 1.03 Fold and the Fold down-regulation (HilA) was 0.68 Fold.
